Values of other authors in patent US6703034B2, “Neem oil microemulsion without cosurfactants or alcohols and a process to form the same” (University of Florida, priority 2000, dated 2004).

Columns and labels:
certain insects = settings: quantities as low as
Insects = settings: treated during larval and pupal stages

Structure (SMILES): C/C=C(\C)C(=O)O[C@H]1C[C@@H](OC(C)=O)[C@@]2(C(=O)OC)CO[C@H]3[C@@H](O)[C@@](C)([C@]45O[C@@]4(C)[C@H]4C[C@@H]5O[C@@H]5OC=C[C@@]54O)[C@H]4[C@]1(CO[C@]4(O)C(=O)OC)[C@@H]32 [azadirachtin]
- quantity at which potent (repels certain insects) (certain insects): 1 ppm
- time to death of treated insects (Insects): 3 to 14 days
